# Legend:
# [1] = test system: Vero; assay: Cytotoxic effect on host cells during growth phase of virus in vero cell cultures using MTT method; format: functional, cell-based; conditions: Chlorocebus sabaeus
# [2] = test system: Vero; assay: Cytotoxic effect on host cells during stationary phase of virus in vero cell cultures using MTT method; format: functional, cell-based; conditions: Chlorocebus sabaeus
# [3] = test system: Vero; assay: In vitro anti-vesicular stomatitis virus activity in vero cell cultures; format: functional; conditions: Chlorocebus sabaeus, read-out: ED50 (the source's name)
# [4] = Ratio of cytotoxicity, IC50(growing) to antiviral activity (ED50) was determined; format: functional
SMILES,IC50 [1],IC50 [2],EC50 [3],Selectivity index [4]
C[C@H](O)C1=C[C@@H](n2cnc3c(N)ncnc32)[C@H](O)[C@@H]1O,> 100 µg/mL,> 500 µg/mL,> 100 µg/mL,
Nc1nccc2c1ncn2[C@@H]1C=C(CO)[C@@H](O)[C@H]1O,0.55 µg/mL,> 500 µg/mL,0.24 µg/mL,2.3
C[C@H](O)C1=C[C@@H](n2cnc3c(N)nccc32)[C@H](O)[C@@H]1O,> 100 µg/mL,> 500 µg/mL,> 100 µg/mL,
C[C@@H](O)C1=C[C@@H](n2cnc3c(N)nccc32)[C@H](O)[C@@H]1O,12 µg/mL,> 500 µg/mL,1 µg/mL,12
C[C@@H](O)C1=C[C@@H](n2cnc3c(N)ncnc32)[C@H](O)[C@@H]1O,2.2 µg/mL,> 500 µg/mL,0.24 µg/mL,9.2
Nc1ncnc2c1ncn2[C@@H]1C=C(CO)[C@@H](O)[C@H]1O [NEOPLANOCIN A],0.26 µg/mL,152 µg/mL,0.24 µg/mL,1.1
